Source: ChEMBL document CHEMBL5380791, “Modular Biomimetic Strategy Enabled Discovery of Simplified Pseudo-Natural Macrocyclic P-Glycoprotein Inhibitors Capable of Overcoming Multidrug Resistance” (J Med Chem, 2023)
Active and inactive are the calls of the source. No cut-off for these calls is given here.

Assays:
[1] = Bioavailability in CD-1 mouse at 25 mg/kg, ip; format: ADME, organism-based; details: in vivo
K562/Adr = assay: Reversal of vinorelbine resistance in human K562/Adr cells assessed as reduction in cell viability incubated for 72 hrs in presence of vinorelbine (reference value: 7320.6+/-2115.2 nM); format: functional, cell-based
KBv200 [2] = assay: Reversal fold, ratio of vinorelbine IC50 for cytotoxicity against human KBv200 cells over test compound IC50 for reversal of vinorelbine resistance in human KBv200 cells; format: functional
KBv200 [3] = assay: Antitumor activity against human KBv200 cells xenografted in Balb/cA nude mouse assessed as tumor growth inhibition at 75 mg/kg, ip qd administered for 13 days; format: functional; details: KBv200, 312 h, time 13 day
KBv200 [4] = assay: Induction of apoptosis in human KBv200 cells assessed as increase in cleaved PARP level at 5 uM incubated for 24 hrs in presence of vinorelbine by Western blotting analysis; format: functional, cell-based
KBv200 [5] = assay: Antitumor activity against human KBv200 cells xenografted in Balb/cA nude mouse assessed as mean tumor volume at 75 mg/kg, ip administered as single dose and measured on day 0 in presence of vinorelbine; format: functional
KBv200 [6] = assay: Antitumor activity against human KBv200 cells xenografted in Balb/cA nude mouse assessed as mean tumor volume at 75 mg/kg, ip administered as single dose and measured on day 0; format: functional
[7] = Tmax in CD-1 mouse at 30 mg/kg, po; format: ADME, organism-based; details: in vivo
[8] = Toxicity in Balb/cA nude mouse xenografted with human KBv200 cells assessed as mortality at 75 mg/kg, ip qd administered for 13 days in presence of vinorelbine; format: organism-based; details: in vivo, 312 h, time 13 day
[9] = Cytotoxicity against human L02 cells assessed as reduction in cell viability incubated for 48 hrs by CCK-8 assay; format: toxicity, cell-based
NCI/ADR-RES = assay: Reversal of vinorelbine resistance in human NCI/ADR-RES cells assessed as reduction in cell viability incubated for 72 hrs in presence of vinorelbine (reference value: 6125.7+/-3267.7 nM); format: functional, cell-based
KBv200 [10] = assay: Reversal of paclitaxel resistance in human KBv200 cells assessed as reduction in cell viability incubated for 72 hrs in presence of paclitaxel (reference value: 392.9+/-196.5 nM); format: functional, cell-based; details: KBv200, 72 h
KBv200 [11] = assay: Reversal of adriamycin resistance in human KBv200 cells assessed as reduction in cell viability incubated for 72 hrs in presence of adriamycin (reference value: 1291.2+/-308.9 nM); format: functional, cell-based; details: KBv200, 72 h
[12] = AUClast in CD-1 mouse at 30 mg/kg, po; format: ADME, organism-based; parameters: dose 30 mg/kg, route po; details: in vivo
[13] = Half life in CD-1 mouse at 30 mg/kg, po; format: ADME, organism-based; details: in vivo
OVCAR-8 = assay: Reversal of vinorelbine resistance in human OVCAR-8 cells assessed as reduction in cell viability incubated for 72 hrs in presence of vinorelbine (reference value: 16.2+/-4.7 nM); format: functional, cell-based; details: OVCAR-8, 72 h
[14] = Clearance in CD-1 mouse at 3 mg/kg, iv; format: ADME, organism-based; details: in vivo
KBv200 [15] = assay: Reversal of vinorelbine resistance in human KBv200 cells assessed as reduction in cell viability incubated for 72 hrs in presence of vinorelbine (reference value: 224 to 228.30 nM); format: functional, cell-based; details: KBv200, 72 h, read-out: IC50
K562 = assay: Reversal of vinorelbine resistance in human K562 cells assessed as reduction in cell viability incubated for 72 hrs in presence of vinorelbine (reference value: 5.9+/-0.2 nM); format: functional, cell-based; details: K562, 72 h
[16] = AUClast in CD-1 mouse at 25 mg/kg, ip; format: ADME, organism-based; parameters: dose 25 mg/kg, route ip; details: in vivo
KBv200 [17] = assay: Antitumor activity against human KBv200 cells xenografted in Balb/cA nude mouse assessed as T/C ratio at 75 mg/kg, ip qd administered for 13 days in presence of vinorelbine; format: functional; details: time 13 day
[18] = Toxicity in Balb/cA nude mouse xenografted with human KBv200 cells assessed as changes in body weight at 75 mg/kg, ip qd administered for 13 days in presence of vinorelbine; format: organism-based; details: in vivo, 312 h, time 13 day
[19] = AUCinf in CD-1 mouse at 3 mg/kg, iv; format: ADME, organism-based; parameters: dose 3 mg/kg, route iv; details: in vivo
KBv200 [20] = assay: Induction of apoptosis in human KBv200 cells assessed as increase in cleaved caspase 3 level at 5 uM incubated for 24 hrs by Western blotting analysis; format: functional, cell-based
KBv200 [21] = assay: Downregulation of P-gp mRNA expression level in human KBV200 cells by qRT-PCR analysis; format: functional, cell-based
[22] = Toxicity in Balb/cA nude mouse xenografted with human KBv200 cells assessed as mortality at 75 mg/kg, ip qd administered for 13 days; format: organism-based; details: in vivo, 312 h, time 13 day
KBv200 [23] = assay: Antitumor activity against human KBv200 cells xenografted in Balb/cA nude mouse assessed as tumor growth inhibition at 75 mg/kg, ip qd administered for 13 days in presence of vinorelbine; format: functional; details: KBv200, 312 h, time 13 day
KBv200 [24] = assay: Induction of apoptosis in human KBv200 cells assessed as increase in cleaved PARP level at 5 uM incubated for 24 hrs by Western blotting analysis; format: functional, cell-based
KBv200 [25] = assay: Induction of apoptosis in human KBv200 cells assessed as increase in cleaved caspase 9 level at 5 uM incubated for 24 hrs by Western blotting analysis; format: functional, cell-based
KBv200 [26] = assay: Antitumor activity against human KBv200 cells xenografted in Balb/cA nude mouse assessed as T/C ratio at 75 mg/kg, ip qd administered for 13 days; format: functional; details: time 13 day
[27] = AUCinf in CD-1 mouse at 25 mg/kg, ip; format: ADME, organism-based; parameters: dose 25 mg/kg, route ip; details: in vivo
[28] = AUClast in CD-1 mouse at 3 mg/kg, iv; format: ADME, organism-based; parameters: dose 3 mg/kg, route iv; details: in vivo
[29] = Cmax in CD-1 mouse at 25 mg/kg, ip; format: ADME, organism-based; parameters: dose 25 mg/kg, route ip; details: in vivo
KBv200 [30] = assay: Induction of apoptosis in human KBv200 cells assessed as increase in cleaved caspase 3 level at 5 uM incubated for 24 hrs in presence of vinorelbine by Western blotting analysis; format: functional, cell-based
[31] = Oral bioavailability in CD-1 mouse at 30 mg/kg; format: ADME, organism-based; details: in vivo
[32] = Toxicity in Balb/cA nude mouse xenografted with human KBv200 cells assessed as changes in body weight at 75 mg/kg, ip qd administered for 13 days; format: organism-based; details: in vivo, 312 h, time 13 day
KBv200 [33] = assay: Antitumor activity against human KBv200 cells xenografted in Balb/cA nude mouse assessed as mean tumor volume at 75 mg/kg, ip qd administered for 13 days in presence of vinorelbine; format: functional; details: time 13 day
KBv200 [34] = assay: Induction of apoptosis in human KBv200 cells assessed as increase in cleaved caspase 9 level at 5 uM incubated for 24 hrs in presence of vinorelbine by Western blotting analysis; format: functional, cell-based
[35] = Cytotoxicity against human HEK293T cells assessed as reduction in cell viability incubated for 48 hrs by CCK-8 assay; format: toxicity, cell-based, HEK-293T
[36] = Tmax in CD-1 mouse at 25 mg/kg, ip; format: ADME, organism-based; details: in vivo
[37] = Cmax in CD-1 mouse at 30 mg/kg, po; format: ADME, organism-based; parameters: dose 30 mg/kg, route po; details: in vivo
[38] = Half life in CD-1 mouse at 25 mg/kg, ip; format: ADME, organism-based; details: in vivo
[39] = AUCinf in CD-1 mouse at 30 mg/kg, po; format: ADME, organism-based; parameters: dose 30 mg/kg, route po; details: in vivo
[40] = Half life in CD-1 mouse at 3 mg/kg, iv; format: ADME, organism-based; details: in vivo
[41] = biological target: ATP-dependent translocase ABCB1 (Homo sapiens, UniProt P08183); assay: Inhibition of P-gp in human KBv200 cells assessed as induction of conformation change by measuring increase in UIC-2 binding level at 50 uM incubated for 10 mins by UIC-2 reactivity shift assay; format: cell-based; details: kbv200, 10 min
KB = assay: Reversal of vinorelbine resistance in human KB cells assessed as reduction in cell viability incubated for 72 hrs in presence of vinorelbine (reference value: 7.4+/-2.2 nM); format: functional, cell-based
KBv200 [42] = assay: Antitumor activity against human KBv200 cells xenografted in Balb/cA nude mouse assessed as mean tumor volume at 75 mg/kg, ip qd administered for 13 days; format: functional; details: time 13 day

ATP-dependent translocase ABCB1, sequence (P08183 whole entry): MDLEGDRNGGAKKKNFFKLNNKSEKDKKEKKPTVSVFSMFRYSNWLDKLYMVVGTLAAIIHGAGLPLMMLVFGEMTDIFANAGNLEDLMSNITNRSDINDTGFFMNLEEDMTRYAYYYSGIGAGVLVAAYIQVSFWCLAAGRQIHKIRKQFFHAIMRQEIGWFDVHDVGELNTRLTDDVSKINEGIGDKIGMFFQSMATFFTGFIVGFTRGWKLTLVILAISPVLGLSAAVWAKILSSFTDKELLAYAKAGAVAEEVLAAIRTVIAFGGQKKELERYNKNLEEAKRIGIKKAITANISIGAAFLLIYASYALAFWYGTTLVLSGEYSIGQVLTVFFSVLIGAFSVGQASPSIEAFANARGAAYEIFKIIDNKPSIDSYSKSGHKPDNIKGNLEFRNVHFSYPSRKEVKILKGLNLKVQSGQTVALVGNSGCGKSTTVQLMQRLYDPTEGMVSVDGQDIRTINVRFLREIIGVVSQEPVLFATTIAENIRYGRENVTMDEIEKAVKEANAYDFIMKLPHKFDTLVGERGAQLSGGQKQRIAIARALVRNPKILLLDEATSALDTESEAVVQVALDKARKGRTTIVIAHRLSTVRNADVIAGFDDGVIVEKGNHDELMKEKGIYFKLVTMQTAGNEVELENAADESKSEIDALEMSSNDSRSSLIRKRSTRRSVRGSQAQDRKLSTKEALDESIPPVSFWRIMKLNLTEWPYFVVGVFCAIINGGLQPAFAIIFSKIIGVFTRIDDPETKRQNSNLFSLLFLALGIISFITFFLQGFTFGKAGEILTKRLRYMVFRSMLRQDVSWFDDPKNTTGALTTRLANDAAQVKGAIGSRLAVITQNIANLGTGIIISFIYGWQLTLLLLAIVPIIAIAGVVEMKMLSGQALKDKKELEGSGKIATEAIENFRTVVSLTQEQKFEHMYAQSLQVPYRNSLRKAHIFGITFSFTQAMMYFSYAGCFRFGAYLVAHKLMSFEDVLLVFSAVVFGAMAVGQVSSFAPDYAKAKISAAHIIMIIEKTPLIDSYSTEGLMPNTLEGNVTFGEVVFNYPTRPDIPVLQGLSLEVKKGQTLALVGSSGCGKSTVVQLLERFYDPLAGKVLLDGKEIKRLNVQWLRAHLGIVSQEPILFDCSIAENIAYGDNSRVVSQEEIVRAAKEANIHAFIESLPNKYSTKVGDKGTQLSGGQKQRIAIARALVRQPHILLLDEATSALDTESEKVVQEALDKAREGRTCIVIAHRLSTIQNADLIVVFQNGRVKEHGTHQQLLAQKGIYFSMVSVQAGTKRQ

CC(C)[C@H]1NC(=O)/C(c2ccccc2)=C\C=C(\c2ccccc2)CNC(=O)CCCCCCCCCCCNC1=O
bioavailability [1]: 59.5%
IC50 (K562/Adr): 1210 nM
Ratio IC50 (KBv200 [2]): 386
inhibition in vivo at 75 mg/kg (KBv200 [3]): -13%
Activity (KBv200 [4]): Active
Activity (KBv200 [5]): 121.5 mm3
Activity (KBv200 [6]): 121 mm3
Tmax [7]: 0.25 h
Activity [8]: Non-Toxic
IC50 at 48 h [9]: > 100000 nM
IC50 (NCI/ADR-RES): 619 nM
IC50 (KBv200 [10]): 8 nM
IC50 (KBv200 [11]): 107 nM
AUC(0-t) [12]: 2190 ng·h/mL
half-life [13]: 1.24 h
IC50 (OVCAR-8): 6.8 nM
clearance [14]: 58.2 mL/min/kg
IC50 (KBv200 [15]): 0.74 nM
IC50 (K562): 1.4 nM
AUC(0-t) [16]: 4400 ng·h/mL
T/C (KBv200 [17]): 52%
Activity [18]: Non-Toxic
AUC(0-inf) [19]: 888 ng·h/mL
Activity (KBv200 [20]): inactive
Activity (KBv200 [21]): inactive
Activity [22]: Non-Toxic
inhibition in vivo at 75 mg/kg (KBv200 [23]): 48%
Activity (KBv200 [24]): inactive
Activity (KBv200 [25]): inactive
T/C (KBv200 [26]): 113%
AUC(0-inf) [27]: 5100 ng·h/mL
AUC(0-t) [28]: 887 ng·h/mL
Cmax [29]: 2390 ng/mL
Activity (KBv200 [30]): Active
bioavailability [31]: 24.7%
Activity [32]: Non-Toxic
Activity (KBv200 [33]): 1132.6 mm3
Activity (KBv200 [34]): Active
IC50 at 48 h [35]: > 100000 nM
Tmax [36]: 7.2 min
Cmax [37]: 1380 ng/mL
half-life [38]: 11.2 h
AUC(0-inf) [39]: 2200 ng·h/mL
half-life [40]: 1.23 h
Activity [41]: Active
IC50 (KB): 2.2 nM
Activity (KBv200 [42]): 2318.6 mm3
